The values below come from the supplement of paper PMC8967900.
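Further: ALL cell lines in 384-well plates, five doses spanning 10,000-fold, each plate scaled between vehicle and 100 µmol/L benzalkonium chloride controls, sDSS an adapted area-under-curve metric.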

The test system of the first assay is MOLT-16. Nature of the assay: selective drug sensitivity score (sDSS, relative to normal bone marrow) (sDSS (score)); higher = more potent and effective on the cell line relative to normal bone marrow cells. Conditions: 72 h.
Regarding `Cn1cc(C2=C(c3cn(C4CCN(Cc5ccccn5)CC4)c4ccccc34)C(=O)NC2=O)c2ccccc21` [Enzastaurin] (top concentration 10000 nM), the “selective drug sensitivity score” value was 4.66.

On to `NS(=O)(=O)NCCNc1nonc1/C(=N/O)Nc1ccc(F)c(Br)c1` [Epacadostat] (top concentration 10000 nM), for which the “selective drug sensitivity score” value was -0.06.

Consider `CCOc1ccccc1-n1c(C(C)N2CCN(C(=O)COc3ccc(Cl)cc3)CC2)nc2ccccc2c1=O` (stereo not given) [Erastin] (top concentration 10000 nM), for which the “selective drug sensitivity score” value is 23.

`COc1cc(OC)cc(N(CCNC(C)C)c2ccc3ncc(-c4cnn(C)c4)nc3c2)c1` [Erdafitinib] (top concentration 1000 nM): the “selective drug sensitivity score” value was -0.56.

On to `CC(C)(C)NC(=O)[C@H]1CC[C@H]2[C@@H]3CC[C@H]4NC(=O)C=C[C@]4(C)[C@H]3CC[C@]12C` [Finasteride] (top concentration 10000 nM), for which the “selective drug sensitivity score” value is -0.52.

In the case of `O=c1[nH]c(=O)n([C@H]2C[C@H](O)[C@@H](CO)O2)cc1F` [Floxuridine] (top concentration 10000 nM), the “selective drug sensitivity score” value was determined as 32.8.

In the case of `CNc1nc(Nc2cn(C(C)(C)C#N)nc2C)ncc1C(F)(F)F` [GNE-0877] (top concentration 1000 nM), the “selective drug sensitivity score” value was found to be 0.

As for `CCCc1cc(C)[nH]c(=O)c1CNC(=O)c1cc(-c2ccnc(N3CCN(C)CC3)c2)cc2c1cnn2C(C)C` [GSK343] (top concentration 1000 nM), the “selective drug sensitivity score” value came to 0.

On to `O=C(O)c1ccc(O)c2ncccc12` [IOX-1] (top concentration 100000 nM), for which the “selective drug sensitivity score” value amounted to 3.74.

The subject of another assay is SEM cells. The assay is described as above. Conditions: 72 h.
With `CCCCCOC(=O)Nc1nc(=O)n([C@@H]2O[C@H](C)[C@@H](O)[C@H]2O)cc1F` [Capecitabine] (top concentration 10000 nM), the “selective drug sensitivity score” value was 0.04.

With `Nc1nc(Cl)nc2c1ncn2[C@H]1C[C@H](O)[C@@H](CO)O1` [Cladribine] (top concentration 1000 nM), the “selective drug sensitivity score” value amounted to 3.96.

Regarding `CCN(CC)CCOc1ccc(/C(=C(/Cl)c2ccccc2)c2ccccc2)cc1` [Clomifene] (top concentration 10000 nM), the “selective drug sensitivity score” value is 2.32.

With `CO[C@@H](C(=O)N1Cc2[nH]nc(NC(=O)c3ccc(N4CCN(C)CC4)cc3)c2C1)c1ccccc1` [Danusertib] (top concentration 10000 nM), the “selective drug sensitivity score” value was found to be 19.2.

Take `CC[C@@](C)(Nc1ccnc(-c2c[nH]c3ncccc23)n1)C(=O)NCC(F)(F)F` [Decernotinib] (top concentration 10000 nM): the “selective drug sensitivity score” value was -2.74.

As for `CN1CCN(c2ccc3nc(-c4c(N)c5c(F)cccc5[nH]c4=O)[nH]c3c2)CC1` [Dovitinib] (top concentration 10000 nM), the “selective drug sensitivity score” value amounted to 10.1.

Consider `CC(C)(O)CNc1nc(Nc2ccnc(C(F)(F)F)c2)nc(-c2cccc(C(F)(F)F)n2)n1` [Enasidenib] (top concentration 10000 nM), for which the “selective drug sensitivity score” value worked out at 2.3.

With `CN1CCN(c2ccc(C(=O)Nc3n[nH]c4ccc(Cc5cc(F)cc(F)c5)cc34)c(NC3CCOCC3)c2)CC1` [Entrectinib] (top concentration 1000 nM), the “selective drug sensitivity score” value was 3.5.

For `CNC(=O)c1ccc(N2C(=S)N(c3ccc(C#N)c(C(F)(F)F)c3)C(=O)C2(C)C)cc1F` [Enzalutamide] (top concentration 10000 nM), the “selective drug sensitivity score” value was -0.82.

Turning to `Cn1cc(C2=C(c3cn(C4CCN(Cc5ccccn5)CC4)c4ccccc34)C(=O)NC2=O)c2ccccc21` [Enzastaurin] (top concentration 10000 nM), the “selective drug sensitivity score” value was determined as 6.76.

For `NS(=O)(=O)NCCNc1nonc1/C(=N/O)Nc1ccc(F)c(Br)c1` [Epacadostat] (top concentration 10000 nM), the “selective drug sensitivity score” value was 8.34.

Take `CCOc1ccccc1-n1c(C(C)N2CCN(C(=O)COc3ccc(Cl)cc3)CC2)nc2ccccc2c1=O` (stereo not given) [Erastin] (top concentration 10000 nM): the “selective drug sensitivity score” value was found to be 6.34.

As for `COc1cc(OC)cc(N(CCNC(C)C)c2ccc3ncc(-c4cnn(C)c4)nc3c2)c1` [Erdafitinib] (top concentration 1000 nM), the “selective drug sensitivity score” value amounted to 0.24.

In the case of `CC(C)(C)NC(=O)[C@H]1CC[C@H]2[C@@H]3CC[C@H]4NC(=O)C=C[C@]4(C)[C@H]3CC[C@]12C` [Finasteride] (top concentration 10000 nM), the “selective drug sensitivity score” value is 1.48.

For the molecule `O=c1[nH]c(=O)n([C@H]2C[C@H](O)[C@@H](CO)O2)cc1F` [Floxuridine] (top concentration 10000 nM), the “selective drug sensitivity score” value amounted to 31.5.

As for `CNc1nc(Nc2cn(C(C)(C)C#N)nc2C)ncc1C(F)(F)F` [GNE-0877] (top concentration 1000 nM), the “selective drug sensitivity score” value was determined as 0.

In the case of `CCCc1cc(C)[nH]c(=O)c1CNC(=O)c1cc(-c2ccnc(N3CCN(C)CC3)c2)cc2c1cnn2C(C)C` [GSK343] (top concentration 1000 nM), the “selective drug sensitivity score” value stood at 0.

For the molecule `O=C(O)c1ccc(O)c2ncccc12` [IOX-1] (top concentration 100000 nM), the “selective drug sensitivity score” value stood at 1.84.

The next assay relates to COG-LL-402h. The assay is described as above. Conditions: 72 h.
On to `CCCCCOC(=O)Nc1nc(=O)n([C@@H]2O[C@H](C)[C@@H](O)[C@H]2O)cc1F` [Capecitabine] (top concentration 10000 nM), for which the “selective drug sensitivity score” value was -0.06.

In the case of `Nc1nc(Cl)nc2c1ncn2[C@H]1C[C@H](O)[C@@H](CO)O1` [Cladribine] (top concentration 1000 nM), the “selective drug sensitivity score” value came out at 3.66.

In the case of `CCN(CC)CCOc1ccc(/C(=C(/Cl)c2ccccc2)c2ccccc2)cc1` [Clomifene] (top concentration 10000 nM), the “selective drug sensitivity score” value is -0.88.

In the case of `CO[C@@H](C(=O)N1Cc2[nH]nc(NC(=O)c3ccc(N4CCN(C)CC4)cc3)c2C1)c1ccccc1` [Danusertib] (top concentration 10000 nM), the “selective drug sensitivity score” value is 11.5.

Consider `CC[C@@](C)(Nc1ccnc(-c2c[nH]c3ncccc23)n1)C(=O)NCC(F)(F)F` [Decernotinib] (top concentration 10000 nM), for which the “selective drug sensitivity score” value is -3.94.

`CN1CCN(c2ccc3nc(-c4c(N)c5c(F)cccc5[nH]c4=O)[nH]c3c2)CC1` [Dovitinib] (top concentration 10000 nM): the “selective drug sensitivity score” value was 2.96.

Take `CC(C)(O)CNc1nc(Nc2ccnc(C(F)(F)F)c2)nc(-c2cccc(C(F)(F)F)n2)n1` [Enasidenib] (top concentration 10000 nM): the “selective drug sensitivity score” value is -0.7.

As to `CN1CCN(c2ccc(C(=O)Nc3n[nH]c4ccc(Cc5cc(F)cc(F)c5)cc34)c(NC3CCOCC3)c2)CC1` [Entrectinib] (top concentration 1000 nM), the “selective drug sensitivity score” value is -0.7.

`CNC(=O)c1ccc(N2C(=S)N(c3ccc(C#N)c(C(F)(F)F)c3)C(=O)C2(C)C)cc1F` [Enzalutamide] (top concentration 10000 nM): the “selective drug sensitivity score” value came out at 0.68.

As for `Cn1cc(C2=C(c3cn(C4CCN(Cc5ccccn5)CC4)c4ccccc34)C(=O)NC2=O)c2ccccc21` [Enzastaurin] (top concentration 10000 nM), the “selective drug sensitivity score” value worked out at 5.16.

On to `NS(=O)(=O)NCCNc1nonc1/C(=N/O)Nc1ccc(F)c(Br)c1` [Epacadostat] (top concentration 10000 nM), for which the “selective drug sensitivity score” value was -0.26.

In the case of `CCOc1ccccc1-n1c(C(C)N2CCN(C(=O)COc3ccc(Cl)cc3)CC2)nc2ccccc2c1=O` (stereo not given) [Erastin] (top concentration 10000 nM), the “selective drug sensitivity score” value turned out to be 7.64.

Regarding `COc1cc(OC)cc(N(CCNC(C)C)c2ccc3ncc(-c4cnn(C)c4)nc3c2)c1` [Erdafitinib] (top concentration 1000 nM), the “selective drug sensitivity score” value worked out at 0.04.

Consider `CC(C)(C)NC(=O)[C@H]1CC[C@H]2[C@@H]3CC[C@H]4NC(=O)C=C[C@]4(C)[C@H]3CC[C@]12C` [Finasteride] (top concentration 10000 nM), for which the “selective drug sensitivity score” value is -0.52.

On to `O=c1[nH]c(=O)n([C@H]2C[C@H](O)[C@@H](CO)O2)cc1F` [Floxuridine] (top concentration 10000 nM), for which the “selective drug sensitivity score” value was found to be 28.2.

Take `CNc1nc(Nc2cn(C(C)(C)C#N)nc2C)ncc1C(F)(F)F` [GNE-0877] (top concentration 1000 nM): the “selective drug sensitivity score” value was 0.

As to `CCCc1cc(C)[nH]c(=O)c1CNC(=O)c1cc(-c2ccnc(N3CCN(C)CC3)c2)cc2c1cnn2C(C)C` [GSK343] (top concentration 1000 nM), the “selective drug sensitivity score” value is 0.

On to `O=C(O)c1ccc(O)c2ncccc12` [IOX-1] (top concentration 100000 nM), for which the “selective drug sensitivity score” value is 3.64.
